{
  "source": "paper PMC5218480",
  "about": "(PLoS ONE, 2017)",
  "system": "MV-4-11 cells",
  "assay": "Gene expression microarray analysis (Affymetrix PrimeView) and GSEA",
  "assay_type": "cell-based, human",
  "parameters": "RFU PODN (11730768_x_at) / Fold change /veh PODN (11730768_x_at) / RFU LINC00158 (11744669_a_at) / Fold change /veh LINC00158 (11744669_a_at) / RFU DUSP10 (11751237_a_at) / Fold change /veh DUSP10 (11751237_a_at) / RFU ID3 (11757404_x_at) / Fold change /veh ID3 (11757404_x_at) / RFU PLEKHG5 (11737974_s_at) / Fold change /veh PLEKHG5 (11737974_s_at) / RFU LRRC4B (11730491_at) / Fold change /veh LRRC4B (11730491_at) / RFU GIMAP4 (11747438_a_at) / Fold change /veh GIMAP4 (11747438_a_at) / RFU KRT8 (11758183_x_at) / Fold change /veh KRT8 (11758183_x_at) / RFU CNN1 (11734310_a_at) / Fold change /veh CNN1 (11734310_a_at) / RFU VPS37D (11726825_at) / Fold change /veh VPS37D (11726825_at) / RFU C10orf10 (11716522_x_at) / Fold change /veh C10orf10 (11716522_x_at) / RFU KIR2DL2 /// KIR2DL4 /// KIR2DL5A /// KIR2DL5B /// KIR2DS1 /// KIR2DS2 /// KIR2DS3 /// KIR2DS4 /// KIR3DL3 /// KIR3DL3 /// KIR3DS1 (11738374_at) / Fold change /veh KIR2DL2 /// KIR2DL4 /// KIR2DL5A /// KIR2DL5B /// KIR2DS1 /// KIR2DS2 /// KIR2DS3 /// KIR2DS4 /// KIR3DL3 /// KIR3DL3 /// KIR3DS1 (11738374_at) / RFU C1QL1 (11718748_at) / Fold change /veh C1QL1 (11718748_at) / RFU TMPRSS4 (11747572_a_at) / Fold change /veh TMPRSS4 (11747572_a_at) / RFU HAMP (11756126_x_at) / Fold change /veh HAMP (11756126_x_at) / RFU RNFT2 (11725882_a_at) / Fold change /veh RNFT2 (11725882_a_at) / RFU NR4A2 (11747474_a_at) / Fold change /veh NR4A2 (11747474_a_at) / RFU ABCC12 (11746883_a_at) / Fold change /veh ABCC12 (11746883_a_at) / RFU TMEM136 (11760407_x_at) / Fold change /veh TMEM136 (11760407_x_at) / RFU CLDN22 /// WWC2 (11732394_at) / Fold change /veh CLDN22 /// WWC2 (11732394_at) / RFU HLA-DPB1 (11760878_x_at) / Fold change /veh HLA-DPB1 (11760878_x_at) / RFU SPINT1 (11716480_a_at) / Fold change /veh SPINT1 (11716480_a_at) / RFU GAP43 (11754022_s_at) / Fold change /veh GAP43 (11754022_s_at) / RFU A4GNT (11735810_at) / Fold change /veh A4GNT (11735810_at) / RFU PRB3 (11715151_x_at) / Fold change /veh PRB3 (11715151_x_at) / RFU TUBB4B (11761932_at) / Fold change /veh TUBB4B (11761932_at) / RFU CAPN14 (11732068_a_at) / Fold change /veh CAPN14 (11732068_a_at) / RFU TMCC2 (11721928_a_at) / Fold change /veh TMCC2 (11721928_a_at) / RFU IRGQ (11745062_a_at) / Fold change /veh IRGQ (11745062_a_at) / RFU FAM174B (11720279_a_at) / Fold change /veh FAM174B (11720279_a_at) / RFU TMPRSS4 (11748680_a_at) / Fold change /veh TMPRSS4 (11748680_a_at) / RFU FAM212B (11763350_a_at) / Fold change /veh FAM212B (11763350_a_at) / RFU PLEKHG5 (11743358_a_at) / Fold change /veh PLEKHG5 (11743358_a_at) / RFU ZSCAN30 (11745921_a_at) / Fold change /veh ZSCAN30 (11745921_a_at) / RFU CMKLR1 (11741424_a_at) / Fold change /veh CMKLR1 (11741424_a_at) / RFU LOC101060620 /// MAPK8IP1 (11723275_at) / Fold change /veh LOC101060620 /// MAPK8IP1 (11723275_at) / RFU SPTSSB (11747773_x_at) / Fold change /veh SPTSSB (11747773_x_at) / RFU PRSS12 (11739890_at) / Fold change /veh PRSS12 (11739890_at) / RFU BIN1 (11741810_x_at) / Fold change /veh BIN1 (11741810_x_at) / RFU WNT11 (11732464_a_at) / Fold change /veh WNT11 (11732464_a_at) / RFU C10orf10 (11716521_a_at) / Fold change /veh C10orf10 (11716521_a_at) / RFU C5orf56 (11738089_at) / Fold change /veh C5orf56 (11738089_at) / RFU CYB561 (11721691_x_at) / Fold change /veh CYB561 (11721691_x_at) / RFU ANKRD19P (11752326_a_at) / Fold change /veh ANKRD19P (11752326_a_at) / RFU OR2T12 /// OR2T33 /// OR2T8 (11738714_s_at) / Fold change /veh OR2T12 /// OR2T33 /// OR2T8 (11738714_s_at) / RFU VCAN (11748164_a_at) / Fold change /veh VCAN (11748164_a_at) / RFU JSRP1 (11732532_at) / Fold change /veh JSRP1 (11732532_at) / RFU KRTAP10-11 (11738290_x_at) / Fold change /veh KRTAP10-11 (11738290_x_at) / RFU MYO3A (11730013_a_at) / Fold change /veh MYO3A (11730013_a_at) / RFU EBF3 (11725865_a_at) / Fold change /veh EBF3 (11725865_a_at) / RFU CAMK2N1 (11719241_x_at) / Fold change /veh CAMK2N1 (11719241_x_at) / RFU C5orf56 (11738088_a_at) / Fold change /veh C5orf56 (11738088_a_at) / RFU OLFML3 (11715873_a_at) / Fold change /veh OLFML3 (11715873_a_at) / RFU LOC100653217 /// NTM (11731650_a_at) / Fold change /veh LOC100653217 /// NTM (11731650_a_at) / RFU MAPK11 (11762145_a_at) / Fold change /veh MAPK11 (11762145_a_at) / RFU FIZ1 (11724087_x_at) / Fold change /veh FIZ1 (11724087_x_at) / RFU OASL (11726364_x_at) / Fold change /veh OASL (11726364_x_at) / RFU SOX15 (11748057_x_at) / Fold change /veh SOX15 (11748057_x_at) / RFU CD79A (11719716_a_at) / Fold change /veh CD79A (11719716_a_at) / RFU HIST1H1D (11736915_at) / Fold change /veh HIST1H1D (11736915_at) / RFU CASKIN2 (11723855_a_at) / Fold change /veh CASKIN2 (11723855_a_at) / RFU LOC730098 (11760151_x_at) / Fold change /veh LOC730098 (11760151_x_at) / RFU OR4N2 (11742367_at) / Fold change /veh OR4N2 (11742367_at) / RFU PRRT2 (11749266_a_at) / Fold change /veh PRRT2 (11749266_a_at) / RFU SNX32 (11753110_a_at) / Fold change /veh SNX32 (11753110_a_at) / RFU CDHR5 (11726645_a_at) / Fold change /veh CDHR5 (11726645_a_at) / RFU RCAN1 (11760418_a_at) / Fold change /veh RCAN1 (11760418_a_at) / RFU FAM167A (11723789_a_at) / Fold change /veh FAM167A (11723789_a_at) / RFU FAM26E (11764081_at) / Fold change /veh FAM26E (11764081_at) / RFU ISYNA1 (11749810_s_at) / Fold change /veh ISYNA1 (11749810_s_at) / RFU ACY1 (11761880_at) / Fold change /veh ACY1 (11761880_at) / RFU 11764098_at / Fold change /veh 11764098_at / RFU SAMD14 (11745864_x_at) / Fold change /veh SAMD14 (11745864_x_at) / RFU NPB (11741838_a_at) / Fold change /veh NPB (11741838_a_at) / RFU TMPRSS6 (11731388_a_at) / Fold change /veh TMPRSS6 (11731388_a_at) / RFU KRTAP10-2 (11738614_at) / Fold change /veh KRTAP10-2 (11738614_at) / RFU ARHGAP8 /// PRR5-ARHGAP8 (11727945_x_at) / Fold change /veh ARHGAP8 /// PRR5-ARHGAP8 (11727945_x_at) / RFU KRTAP5-7 /// NADSYN1 (11734609_at) / Fold change /veh KRTAP5-7 /// NADSYN1 (11734609_at) / RFU RASL12 (11751679_a_at) / Fold change /veh RASL12 (11751679_a_at) / RFU CDKN2B (11736163_a_at) / Fold change /veh CDKN2B (11736163_a_at) / RFU PRF1 (11729649_at) / Fold change /veh PRF1 (11729649_at) / RFU, ZNF638 /// ZNF638-IT1 / Fold change vs veh, ZNF638 /// ZNF638-IT1 / RFU, PANK3 / Fold change vs veh, PANK3 / RFU, SH3YL1 / Fold change vs veh, SH3YL1 / RFU, ZEB2 / Fold change vs veh, ZEB2 / RFU, NRIP1 / Fold change vs veh, NRIP1 / RFU, PTTG1IP / Fold change vs veh, PTTG1IP / RFU, CAPN2 / Fold change vs veh, CAPN2 / RFU, MED14 / Fold change vs veh, MED14 / RFU, SNORA58 / Fold change vs veh, SNORA58 / RFU, C1orf63 / Fold change vs veh, C1orf63 / RFU, LRRFIP1 / Fold change vs veh, LRRFIP1 / RFU, NDUFAF7 / Fold change vs veh, NDUFAF7 / RFU, SLC12A2 / Fold change vs veh, SLC12A2 / RFU, IBTK / Fold change vs veh, IBTK / RFU, ESF1 / Fold change vs veh, ESF1 / Fold change vs veh, TMEM50B / RFU, TAOK1 / Fold change vs veh, TAOK1 / RFU, ACBD3 / Fold change vs veh, ACBD3 / RFU, TMA16 / Fold change vs veh, TMA16 / RFU, RWDD3 / Fold change vs veh, RWDD3 / RFU, BCAT1 / Fold change vs veh, BCAT1 / RFU, EDEM3 / Fold change vs veh, EDEM3 / RFU, TMEM33 / Fold change vs veh, TMEM33 / RFU, WDR75 / Fold change vs veh, WDR75 / RFU, AHCTF1 / Fold change vs veh, AHCTF1 / RFU, TFRC / Fold change vs veh, TFRC / RFU, ZDHHC17 / Fold change vs veh, ZDHHC17 / RFU, NOM1 / Fold change vs veh, NOM1 / RFU, ARL8B / Fold change vs veh, ARL8B / RFU, ZBTB11 / Fold change vs veh, ZBTB11 / RFU, TAMM41 / Fold change vs veh, TAMM41 / RFU, KIAA1704 /// LOC100996395 / Fold change vs veh, KIAA1704 /// LOC100996395 / RFU, ING1 / Fold change vs veh, ING1 / RFU, TRMT61B / Fold change vs veh, TRMT61B / RFU, FUBP3 / Fold change vs veh, FUBP3 / RFU, TP53 / Fold change vs veh, TP53 / RFU, TNKS2 / Fold change vs veh, TNKS2 / RFU, ZFP14 / Fold change vs veh, ZFP14 / RFU, ACTR2 / Fold change vs veh, ACTR2 / RFU, PPP3R1 / Fold change vs veh, PPP3R1 / RFU, PIK3R1 / Fold change vs veh, PIK3R1 / RFU, HNRNPA1 / Fold change vs veh, HNRNPA1 / RFU, RNF170 / Fold change vs veh, RNF170 / RFU, ZNF28 / Fold change vs veh, ZNF28 / RFU, RNGTT / Fold change vs veh, RNGTT / RFU, OGT / Fold change vs veh, OGT / RFU, BRD1 / Fold change vs veh, BRD1 / RFU, MARS / Fold change vs veh, MARS / RFU, ZNF655 / Fold change vs veh, ZNF655 / RFU, FAHD1 / Fold change vs veh, FAHD1 / RFU, BDP1 / Fold change vs veh, BDP1 / RFU, LRRCC1 / Fold change vs veh, LRRCC1 / RFU, ARID1A / Fold change vs veh, ARID1A / RFU, ZNF146 / Fold change vs veh, ZNF146 / RFU, ZNF330 / Fold change vs veh, ZNF330 / RFU, GPN3 / Fold change vs veh, GPN3 / RFU, C9orf123 / Fold change vs veh, C9orf123 / RFU, N4BP2L2 / Fold change vs veh, N4BP2L2 / RFU, ARFIP1 / Fold change vs veh, ARFIP1 / RFU, FAM179B / Fold change vs veh, FAM179B / RFU, BCL10 / Fold change vs veh, BCL10 / RFU, UHRF1BP1L / Fold change vs veh, UHRF1BP1L / RFU, BET1 / Fold change vs veh, BET1 / RFU, CNOT2 / Fold change vs veh, CNOT2 / RFU, ZNF268 / Fold change vs veh, ZNF268 / Fold change vs veh, ZNF507 / RFU, DGCR2 / Fold change vs veh, DGCR2 / RFU, WDSUB1 / Fold change vs veh, WDSUB1 / Fold change vs veh, HSP90B1 /// MIR3652 / RFU, ADSS / Fold change vs veh, ADSS / RFU, GK / Fold change vs veh, GK / RFU, ZNF148 / Fold change vs veh, ZNF148 / RFU, TAF9 / Fold change vs veh, TAF9 / RFU, SLC1A5 / Fold change vs veh, SLC1A5 / RFU, SLMO2 / Fold change vs veh, SLMO2 / RFU, ABCC4 / Fold change vs veh, ABCC4 / RFU, LOC101060439 /// RAP1B / Fold change vs veh, LOC101060439 /// RAP1B / RFU, RFX7 / Fold change vs veh, RFX7 / RFU, GTPBP10 / Fold change vs veh, GTPBP10 / RFU, CNEP1R1 / Fold change vs veh, CNEP1R1 / RFU, BIVM-ERCC5 /// ERCC5 / Fold change vs veh, BIVM-ERCC5 /// ERCC5 / RFU, ILF3 / Fold change vs veh, ILF3 / RFU 11762660_at / Fold change /veh 11762660_at / RFU VCAN (11757783_s_at) / Fold change /veh VCAN (11757783_s_at) / RFU DDX43 (11728927_at) / Fold change /veh DDX43 (11728927_at) / RFU KRT8 (11758188_x_at) / Fold change /veh KRT8 (11758188_x_at) / RFU NKD1 (11759106_at) / Fold change /veh NKD1 (11759106_at) / RFU SRD5A1 (11742802_a_at) / Fold change /veh SRD5A1 (11742802_a_at) / RFU TPSAB1 /// TPSB2 (11721975_s_at) / Fold change /veh TPSAB1 /// TPSB2 (11721975_s_at) / RFU GSTM3 (11746129_a_at) / Fold change /veh GSTM3 (11746129_a_at) / RFU IL23R (11737362_x_at) / Fold change /veh IL23R (11737362_x_at) / RFU TMEM51 (11727254_a_at) / Fold change /veh TMEM51 (11727254_a_at) / RFU PIWIL2 (11732686_x_at) / Fold change /veh PIWIL2 (11732686_x_at) / RFU ORM1 (11744905_x_at) / Fold change /veh ORM1 (11744905_x_at) / RFU CCDC152 (11743942_at) / Fold change /veh CCDC152 (11743942_at) / RFU ECM1 (11717891_a_at) / Fold change /veh ECM1 (11717891_a_at) / RFU IL23R (11748794_a_at) / Fold change /veh IL23R (11748794_a_at) / RFU TNFAIP8L3 (11732012_x_at) / Fold change /veh TNFAIP8L3 (11732012_x_at) / RFU MBOAT4 (11741988_at) / Fold change /veh MBOAT4 (11741988_at) / RFU 11764193_at / Fold change /veh 11764193_at / RFU TMEM53 (11763286_at) / Fold change /veh TMEM53 (11763286_at) / RFU MAGEB2 (11727129_at) / Fold change /veh MAGEB2 (11727129_at) / RFU TMEM200A (11744735_a_at) / Fold change /veh TMEM200A (11744735_a_at) / RFU CCDC152 (11751479_a_at) / Fold change /veh CCDC152 (11751479_a_at) / RFU FAM211A (11726209_a_at) / Fold change /veh FAM211A (11726209_a_at) / RFU RGS16 (11746705_a_at) / Fold change /veh RGS16 (11746705_a_at) / RFU VCAN (11755009_s_at) / Fold change /veh VCAN (11755009_s_at) / RFU RHOB (11743442_s_at) / Fold change /veh RHOB (11743442_s_at) / RFU RGS16 (11720943_a_at) / Fold change /veh RGS16 (11720943_a_at) / RFU RGS16 (11720944_at) / Fold change /veh RGS16 (11720944_at) / RFU, VPS4B / Fold change vs veh, VPS4B / RFU, CREB1 / Fold change vs veh, CREB1 / RFU, DNAJC13 / Fold change vs veh, DNAJC13 / RFU, GNAQ / Fold change vs veh, GNAQ / RFU, CDK5R1 / Fold change vs veh, CDK5R1 / RFU, ZRANB3 / Fold change vs veh, ZRANB3 / RFU, CUL4A / Fold change vs veh, CUL4A / RFU, CCNY / Fold change vs veh, CCNY / RFU, UFL1 / Fold change vs veh, UFL1 / RFU, COG3 / Fold change vs veh, COG3 / RFU, DIAPH2 / Fold change vs veh, DIAPH2 / RFU, SKA2 / Fold change vs veh, SKA2 / RFU, AFF3 / Fold change vs veh, AFF3 / RFU, LMF1 / Fold change vs veh, LMF1 / RFU, IPO11 / Fold change vs veh, IPO11 / RFU, DFFB / Fold change vs veh, DFFB / RFU, FOXP1 / Fold change vs veh, FOXP1 / RFU, CARD8 / Fold change vs veh, CARD8 / RFU, STRN3 / Fold change vs veh, STRN3 / RFU, ADK / Fold change vs veh, ADK / RFU, RASSF2 / Fold change vs veh, RASSF2 / RFU, WIPF1 / Fold change vs veh, WIPF1 / RFU, LARP1B / Fold change vs veh, LARP1B / RFU, RASA1 / Fold change vs veh, RASA1 / RFU, RB1 / Fold change vs veh, RB1 / RFU, PPFIA1 / Fold change vs veh, PPFIA1 / RFU, MAT2A / Fold change vs veh, MAT2A / RFU, CCT5 / Fold change vs veh, CCT5 / RFU, WDR92 / Fold change vs veh, WDR92 / RFU, CUX1 / Fold change vs veh, CUX1 / RFU, TTC7A / Fold change vs veh, TTC7A / RFU, TMEM135 / Fold change vs veh, TMEM135 / RFU, DEPTOR / Fold change vs veh, DEPTOR / RFU, CPM / Fold change vs veh, CPM / RFU, DNAJB6 / Fold change vs veh, DNAJB6 / RFU, CACNA2D3 / Fold change vs veh, CACNA2D3 / RFU, DTX4 / Fold change vs veh, DTX4 / RFU, TFCP2 / Fold change vs veh, TFCP2 / RFU, GMCL1 /// GMCL1P1 / Fold change vs veh, GMCL1 /// GMCL1P1 / RFU, AEBP2 / Fold change vs veh, AEBP2 / RFU, SNHG1 /// SNORD22 /// SNORD25 /// SNORD26 /// SNORD27 /// SNORD28 /// SNORD29 /// SNORD31 / Fold change vs veh, SNHG1 /// SNORD22 /// SNORD25 /// SNORD26 /// SNORD27 /// SNORD28 /// SNORD29 /// SNORD31 / Fold change (Aza/veh), C12orf56 (ProbeSet 11735607_a_at) / Fold change (ACY-1035/veh), C12orf56 (ProbeSet 11735607_a_at) / Fold change (Aza/veh), FGFR1OP (ProbeSet 11751329_s_at) / Fold change (ACY-1035/veh), FGFR1OP (ProbeSet 11751329_s_at) / Fold change (Aza/veh), VPS36 (ProbeSet 11739960_a_at) / Fold change (ACY-1035/veh), VPS36 (ProbeSet 11739960_a_at) / RFU SYPL1 (11715823_x_at) / Fold change /veh SYPL1 (11715823_x_at) / RFU IGFBP7 (11715501_s_at) / Fold change /veh IGFBP7 (11715501_s_at) / RFU REEP3 (11722064_at) / Fold change /veh REEP3 (11722064_at) / RFU IGLL1 (11728026_x_at) / Fold change /veh IGLL1 (11728026_x_at): dose or concentration left out as unconfirmed",
  "details": "ProbeSet 11719817_x_at; LIST B",
  "data": [
    {"smiles": "Nc1ccc(-c2cccs2)cc1NC(=O)c1ccc2c(c1)cc(C1CC1)n2CCN1CCOCC1", "note": "[ACY-1035]", "values": [
      {"measurement": "Fold change vs veh, BET1", "value": 0.95}
    ]}
  ]
}
